Among the data in US20130237535A1, “FATTY ACID SYNTHASE INHIBITORS” (priority 2010, published 2013) are IC50 values, retold here.

Molecules are shown by their SMILES.

The target in this assay is FAS (Homo sapiens, UniProt P49327). Kind of assay: FAS assay (Assay #1 residual NADPH detection or Assay #2 CoA detection with thio-reactive coumarin dye). Format: biochemical. The settings on record: average IC50 values, each compound tested two or more times; FAS Assay #1 or #2. How it is done:
FAS activity was measured through one of the two following assays.
Inhibition of FAS activity can be measured based on the detection of residual NADPH substrate after the FAS assay is quenched. This assay is run as a 10 μL, endpoint assay in 384-well format, where the reaction contains 20 μM malonyl-CoA, 2 μM acetyl-CoA, 30 μM NADPH and 40 nM FAS in 50 mM sodium phosphate, pH 7.0. The assay is run by sequentially dispensing 5 μl of a malonyl-CoA solution, then enzyme solution (containing the acetyl-CoA, and NADPH) into a black, low volume assay plate (Greiner 784076) pre-dispensed with 100 nL compound solutions in DMSO. The reaction is incubated at ambient temperature for 60 minutes, then quenched with 5 μL, of a developing solution composed of 90 μM resazurin, 0.3 IU/ml diaphorase in 50 mM sodium phosphate, pH 7.0. The developed reaction is read on a Molecular Devices Analyst or Acquest (or equivalent) plate reader using a 530 nm excitation wavelength filter, a 580 nm emission filter, and 561 nm dichroic filter. The test compounds are prepared in neat DMSO at a concentration of 10 mM. For inhibition curves, compounds are diluted using a three fold serial dilution and tested at 11 concentrations (e.g. 25 μM-0.42 nM). Curves are analysed using ActivityBase and XLfit, and results are expressed as pIC50 values.
Inhibition of FAS can also be quantified based on the detection of the CoA products with a thio-reactive coumarin dye. This assay is run as a 10 μL endpoint assay in 384-well format, where the reaction contains 20 μM malonyl-CoA, 20 μM acetyl-CoA, 40 μM NADPH and 2 nM FAS in 50 mM sodium phosphate, pH 7.0, and 0.04% Tween-20. The assay is run by adding 5 μL enzyme solution to a black, low volume assay plate (Greiner 784076) pre-dispensed with 100 nl compound solutions in DMSO. After 30 minutes, 5 μL substrate is added, and the reaction incubated at ambient temperature for an additional 60 minutes. The reaction is then quenched with 10 μL of 6M guanidine-HCl containing 50 μM CPM (7-diethylamino-3-(4′-maleimidylphenyl)-4-methylcoumarin (CPM; thio-reactive dye), and incubated for 30 minutes. The plate is read on an Envision (PerkinElmer) or equivalent plate reader using a 380 nm excitation wavelength filter, and a 486 nm emission filter. Data fitting and compound preparations are done as described above.

FAS, sequence (P49327 whole entry): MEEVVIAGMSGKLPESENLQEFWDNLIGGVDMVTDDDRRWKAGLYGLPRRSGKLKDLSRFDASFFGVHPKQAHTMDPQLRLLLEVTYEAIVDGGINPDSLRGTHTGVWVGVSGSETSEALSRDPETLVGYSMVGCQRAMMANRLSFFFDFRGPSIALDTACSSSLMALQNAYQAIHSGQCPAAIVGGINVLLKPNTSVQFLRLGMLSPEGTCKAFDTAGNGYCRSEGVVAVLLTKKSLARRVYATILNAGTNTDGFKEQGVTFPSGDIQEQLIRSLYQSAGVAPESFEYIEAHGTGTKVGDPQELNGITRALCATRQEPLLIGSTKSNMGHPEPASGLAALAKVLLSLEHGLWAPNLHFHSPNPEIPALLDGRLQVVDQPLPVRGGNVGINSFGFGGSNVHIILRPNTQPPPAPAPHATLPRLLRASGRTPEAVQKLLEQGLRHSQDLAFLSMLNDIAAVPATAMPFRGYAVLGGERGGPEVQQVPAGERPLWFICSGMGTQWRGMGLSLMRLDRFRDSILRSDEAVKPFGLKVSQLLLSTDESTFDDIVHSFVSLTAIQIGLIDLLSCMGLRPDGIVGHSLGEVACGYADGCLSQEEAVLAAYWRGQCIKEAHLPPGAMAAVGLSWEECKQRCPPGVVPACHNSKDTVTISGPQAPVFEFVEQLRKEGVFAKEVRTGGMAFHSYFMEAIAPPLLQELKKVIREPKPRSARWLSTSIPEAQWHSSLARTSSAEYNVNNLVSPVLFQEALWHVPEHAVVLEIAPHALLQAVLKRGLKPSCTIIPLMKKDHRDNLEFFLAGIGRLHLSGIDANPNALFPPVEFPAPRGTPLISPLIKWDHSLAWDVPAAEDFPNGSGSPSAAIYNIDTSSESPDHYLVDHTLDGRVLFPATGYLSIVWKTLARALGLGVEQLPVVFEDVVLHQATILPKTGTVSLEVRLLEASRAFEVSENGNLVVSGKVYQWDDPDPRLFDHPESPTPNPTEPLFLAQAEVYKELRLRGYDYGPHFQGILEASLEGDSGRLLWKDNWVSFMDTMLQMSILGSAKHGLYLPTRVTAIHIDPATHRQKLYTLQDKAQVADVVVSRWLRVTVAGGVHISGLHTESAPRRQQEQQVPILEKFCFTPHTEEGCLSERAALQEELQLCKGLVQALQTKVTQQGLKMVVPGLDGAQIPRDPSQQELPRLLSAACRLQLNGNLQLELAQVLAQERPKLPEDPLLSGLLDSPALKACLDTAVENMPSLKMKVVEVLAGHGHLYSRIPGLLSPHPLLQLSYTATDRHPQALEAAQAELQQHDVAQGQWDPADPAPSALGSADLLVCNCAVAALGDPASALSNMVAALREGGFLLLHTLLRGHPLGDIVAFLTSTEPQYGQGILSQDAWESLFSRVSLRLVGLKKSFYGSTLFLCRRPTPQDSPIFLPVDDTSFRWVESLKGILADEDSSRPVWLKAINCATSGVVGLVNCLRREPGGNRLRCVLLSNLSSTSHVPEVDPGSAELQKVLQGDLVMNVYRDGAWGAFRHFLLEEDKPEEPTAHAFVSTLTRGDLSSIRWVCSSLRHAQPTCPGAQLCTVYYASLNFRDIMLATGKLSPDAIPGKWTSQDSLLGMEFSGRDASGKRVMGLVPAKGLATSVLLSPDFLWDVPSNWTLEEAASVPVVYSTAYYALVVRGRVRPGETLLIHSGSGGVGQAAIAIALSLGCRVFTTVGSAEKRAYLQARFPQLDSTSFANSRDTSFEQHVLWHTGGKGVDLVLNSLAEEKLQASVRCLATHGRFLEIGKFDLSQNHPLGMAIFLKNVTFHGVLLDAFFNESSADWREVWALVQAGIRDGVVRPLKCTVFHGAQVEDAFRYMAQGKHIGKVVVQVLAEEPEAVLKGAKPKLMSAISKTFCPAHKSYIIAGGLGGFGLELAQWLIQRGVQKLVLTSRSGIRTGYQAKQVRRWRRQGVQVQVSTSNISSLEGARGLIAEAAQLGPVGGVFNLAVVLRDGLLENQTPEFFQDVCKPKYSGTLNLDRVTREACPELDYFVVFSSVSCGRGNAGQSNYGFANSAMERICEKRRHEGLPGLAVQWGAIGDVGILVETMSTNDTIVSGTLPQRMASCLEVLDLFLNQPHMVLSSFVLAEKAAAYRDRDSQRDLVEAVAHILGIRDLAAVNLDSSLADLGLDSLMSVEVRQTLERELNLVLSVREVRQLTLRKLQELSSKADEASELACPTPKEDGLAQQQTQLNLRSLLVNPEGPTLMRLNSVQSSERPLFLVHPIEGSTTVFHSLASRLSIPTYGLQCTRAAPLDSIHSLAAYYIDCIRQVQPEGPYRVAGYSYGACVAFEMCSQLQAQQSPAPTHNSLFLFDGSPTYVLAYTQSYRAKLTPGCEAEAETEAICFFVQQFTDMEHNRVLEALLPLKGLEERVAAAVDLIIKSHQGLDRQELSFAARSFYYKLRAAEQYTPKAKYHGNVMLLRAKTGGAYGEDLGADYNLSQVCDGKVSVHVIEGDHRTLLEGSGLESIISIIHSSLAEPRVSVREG

Take `CCN1CC2(CCN(S(=O)(=O)c3ccc(-c4ccc5occc5c4)cc3)CC2)OCC1=O` [Example 3, 9-{[4-(1-benzofuran-5-yl)phenyl]sulfonyl}-4-ethyl-1-oxa-4,9-diazaspiro[5.5]undecan-3-one]: the IC50 (usually the concentration needed to halve the response being measured) is 251 nM.

On to `O=C1COC2(CCN(S(=O)(=O)c3ccc(-c4ccccc4)cc3)CC2)CN1C1CC1` [Example 13, 9-(4-biphenylylsulfonyl)-4-cyclopropyl-1-oxa-4,9-diazaspiro[5.5]undecan-3-one], for which the half-inhibitory concentration (IC50) is 1260 nM. The compound `O=C1COC2(CCN(S(=O)(=O)c3ccc(-c4ccc5cc[nH]c5c4)cc3)CC2)CN1C1CC1` [Example 14, 4-cyclopropyl-9-{[4-(1H-indol-6-yl)phenyl]sulfonyl}-1-oxa-4,9-diazaspiro[5.5]undecan-3-one] returned a 50% inhibitory concentration (IC50) of 40 nM. `O=C1COC2(CCN(S(=O)(=O)c3ccc(-c4cc5ccccc5o4)cc3)CC2)CN1C1CC1` [Example 26, 9-{[4-(1-benzofuran-2-yl)phenyl]sulfonyl}-4-cyclopropyl-1-oxa-4,9-diazaspiro[5.5]undecan-3-one] returned a half-maximal inhibitory concentration (IC50) of 200 nM. The figure for `O=C1COC2(CCN(S(=O)(=O)c3ccc(-c4ccc5cccnc5c4)cc3)CC2)CN1C1CC1` [Example 29, 4-cyclopropyl-9-{[4-(7-quinolinyl)phenyl]sulfonyl}-1-oxa-4,9-diazaspiro[5.5]undecan-3-one] is 10 nM; for `O=C1COC2(CCN(S(=O)(=O)c3ccc(-c4ccc5cccnc5c4)cc3F)CC2)CN1C1CC1` [Example 59, 4-cyclopropyl-9-{[2-fluoro-4-(7-quinolinyl)phenyl]sulfonyl}-1-oxa-4,9-diazaspiro[5.5]undecan-3-one] it is 13 nM; for `O=C1COC2(CCN(S(=O)(=O)c3ccc(-c4ccc5[nH]ccc5c4)cc3F)CC2)CN1C1CC1` [Example 70, 4-cyclopropyl-9-{[2-fluoro-4-(1H-indol-5-yl)phenyl]sulfonyl}-1-oxa-4,9-diazaspiro[5.5]undecan-3-one] it is 32 nM. The value for `O=C1COC2(CCN(S(=O)(=O)c3ccc(-c4ccc5scnc5c4)cc3F)CC2)CN1C1CC1` [Example 76, 9-{[4-(1,3-benzothiazol-5-yl)-2-fluorophenyl]sulfonyl}-4-cyclopropyl-1-oxa-4,9-diazaspiro[5.5]undecan-3-one] was 32 nM; that for `O=C1COC2(CCN(S(=O)(=O)c3ccc(-c4ccc5cnccc5c4)cc3)CC2)CN1C1CC1` [Example 86, 4-cyclopropyl-9-{[4-(6-isoquinolinyl)phenyl]sulfonyl}-1-oxa-4,9-diazaspiro[5.5]undecan-3-one] was 6 nM. The value for `Cn1nc(NS(C)(=O)=O)c2cc(-c3ccc(S(=O)(=O)N4CCC5(CC4)CN(C4CC4)C(=O)CO5)cc3)ccc21` [Example 105, N-(5-{4-[(4-cyclopropyl-3-oxo-1-oxa-4,9-diazaspiro[5.5]undec-9-yl)sulfonyl]phenyl}-1-methyl-1H-indazol-3-yl)methanesulfonamide] was 63 nM.
